Eleven compounds from PubChem BioAssay (NCI) can be followed below.

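Grown in 96-well plates, cells were treated for 48 hours with each compound at five concentrations. Insufficient inhibition: endpoint recorded as highest concentration tested. GI50 is the concentration that inhibits growth by half. The concentration for full growth arrest is given as TGI.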

What all share (assay): NCI-60 cell line screen, 48 h
The subject of assay [1] is HCT-116 colon.
The test system of assay [2] is HL-60(TB) leukemia.
For assay [3], the system named is MOLT-4 leukemia.
Assay [4] concerns SF-295 CNS.
The subject of assay [5] is SNB-75 CNS.
Assay [6] deals with SW-620 colon.
Assay [7] deals with T-47D breast.
Assay [8] concerns UACC-257 melanoma.
Assay [9] deals with UACC-62 melanoma.
Assay [10] has as its system SF-539 CNS.

`O=C1/C(=C/c2ccccc2Br)COc2ccc(O)c(O)c21`: the GI50 in assay [1] was 1.31 µM; in [2] it was 0.379 µM; in [3], 0.504 µM; in [4], 2.96 µM; in [5] it was 1.47 µM; in assay [6] it was 1.34 µM. Further, the GI50 in assay [7] was 2.25 µM; in assay [8], 1.53 µM; in [9], 1.55 µM. In addition, the TGI in [1] was found to be 2.78 µM; in assay [2] it was 2.78 µM; in [3] it was 53.4 µM; in assay [4] it was 8.04 µM; in [5] it was 6.92 µM; in assay [6], 4.44 µM. The results for the TGI in assay [7], in assay [8] and in assay [9] were 11.4 µM, 5.17 µM and 3.29 µM, respectively.
Take `COc1cccc(-c2nc(-c3ccc(NC(=O)c4ccccc4)cc3)[nH]c2-c2ccnc(Br)c2)c1`: the GI50 in assay [1] is 3.29 µM; in assay [2], 1.72 µM; in assay [3], 2.7 µM; in assay [10], 1.59 µM; in assay [5] it was 0.815 µM; in [6], 3.77 µM. In addition, the GI50 in assay [7] was 2.44 µM; in [8] it was 5.34 µM; in assay [9] it was 2.95 µM. For the same compound, the TGI in assay [1] is more than 100 µM; in [2] it was 7.45 µM; in assay [3], more than 100 µM; in assay [10], 12.6 µM; in assay [5], more than 100 µM; in assay [6], more than 100 µM. Further, the TGI in [7], in assay [8] and in [9] was more than 100 µM throughout.
On to `N#Cc1ccc(-c2nc3ccc(Cl)cc3[nH]2)cc1`, for which the TGI in assay [2], in assay [3], in assay [4], in assay [10], in [5] and in assay [6] was more than 100 µM each time. The compound further gave a TGI in [7] of more than 100 µM.
For the compound `NCCCn1c2c(c3cc4c(cc3c1=O)OCO4)C(=O)c1ccccc1-2`, the TGI in [1] was 0.554 µM; in assay [2], 2.93 µM; in [3], 0.0742 µM; in assay [4], 1.48 µM; in [7], more than 100 µM; in assay [8], 4.7 µM. This compound yielded a TGI in [9] of 5.5 µM. Also, the GI50 in [2] is 1.48 µM; in [3], 0.0223 µM; in assay [4], 0.483 µM; in assay [7] it was 5.18 µM; in assay [8], 1.38 µM; in assay [9], 2.06 µM.
Take `COc1cc2c(=O)n(CCCn3ccnc3)c3c4cc5c(cc4ccc3c2cc1OC)OCO5`: the GI50 in [4] was 0.331 µM; in assay [10], 0.489 µM; in [5] it was 0.298 µM; in assay [6], 0.49 µM; in [7] it was 0.245 µM. The TGI in assay [4] is 12.5 µM; in [10], 1.8 µM; in assay [5], 9.45 µM; in [6], more than 100 µM; in assay [7] it was 7.82 µM.
For `O=C1CC2C(=O)C1C(C(=O)O)C2C(=O)O` (centres undefined), the TGI in assay [1], in assay [2], in assay [3], in [4], in assay [10] and in assay [6] was more than 100 µM in each case. In addition, the TGI in assay [7], in assay [8] and in [9] was more than 100 µM each time.
Turning to `COC1CC2C=CC3C4OC2(/C(C)=C/C(C)C(C(C)O)OC1=O)C3C(O)C(C)C4OC(=O)c1ccc[nH]1` (centres undefined), the TGI was more than 100 µM in assay [1]; 63.3 µM in assay [2]; 71.2 µM in [3]; more than 100 µM in assay [4]; more than 100 µM in [10]; more than 100 µM in [6]. Besides, the TGI in [7], in assay [8] and in assay [9] was more than 100 µM each time.
With `O=C1/C=C/[C@@H](O)[C@@H]2C[C@@H](O)C[C@H]2/C=C/CCC[C@H](CO)O1`, the GI50 was 2.52 µM in assay [1]; 2.24 µM in assay [2]; 3.11 µM in assay [3]; 3.7 µM in [10]; 2.37 µM in assay [5]; 2.32 µM in [6]. Further, the GI50 in assay [7] was 2.49 µM; in assay [8], 1.68 µM; in [9], 2.55 µM. The TGI in [1] was 6.54 µM; in [2], 8.29 µM; in assay [3], more than 100 µM; in assay [10], more than 100 µM; in [5], more than 100 µM; in assay [6] it was 6.81 µM. Moreover, the TGI is 7.12 µM in [7], more than 100 µM in assay [8] and more than 100 µM in assay [9].
Consider `CC(C)c1cccc(C(C)C)c1N=C(N)C#N`, for which the TGI in assay [1] was more than 58.6 µM; in [2] it was more than 65.3 µM; in [3], more than 66 µM; in [4] it was more than 100 µM; in assay [10], 50 µM; in [5], more than 100 µM. In addition, the TGI in assay [6] was 58.5 µM; in assay [8] it was more than 79.6 µM; in assay [9], 99.1 µM.
With `C[Si](C)(C)/C=C\CCCN1C(=O)CCC1=O`, the TGI in assay [1], in assay [2], in assay [3], in [4], in assay [10] and in [5] was more than 100 µM each time. Moreover, the TGI in [6], in [8] and in [9] was more than 100 µM in each case.
For `COc1ccc(C(=O)C(Br)C(Br)C(=O)O)cc1` (centres undefined), the TGI in [1] was 44.9 µM; in assay [3], 36.1 µM; in [4], more than 100 µM; in assay [10], 51.8 µM; in [5], more than 100 µM; in assay [6] it was 52.3 µM. Further, the TGI in [7], in assay [8] and in [9] was more than 100 µM each time.
